The results in this text go back to BindingDB's records for doi:10.1074/jbc.M112.399303 (Universidade Federal do Rio de Janeiro, 2014).

Common to all, as to assay: Diffusion Ordered Spectroscopy (DOSY)
Holding throughout (settings): 11 °C

In assay [1] the target is T1, Trans-sialidase [3-643,Y342H] (Trypanosoma cruzi, UniProt Q9BHJ5, Y342H).
T1 construct: 3-643
The procedure:
(§1) Solutions of TS, TSY342H, and TSD247A in 20 mM Tris-HCl were exchanged with deuterated PBS using four cycles of concentration with Amicon Ultra (50,000 nominal molecular weight limit; Millipore) and diluted in deuterated PBS. One hundred microliters of 0.1 mM protein solution (TcTSs or BSA) was titrated with the sialoside (0.2, 0.4, 0.6, 0.8, 1.0, 1.2, 1.6, and 2.0 mM) or lacto-N-neotetraose (0.1, 0.2, 0.3, 0.4, 0.5, 0.6, 0.7, and 0.9mM) as a negative control. The solution containing 0.1 mM protein plus sialoside was further titrated with Me-Lac (0.1, 0.2, 0.3, 0.4, 0.5, 0.6, 0.7, and 0.9 mM) in Shigemi tubes. NMR spectra were obtained at a probe temperature of 293 K on a Bruker DMX 600-MHz spectrometer equipped with a 5-mm self-shielded gradient triple resonance probe. All DOSY experiments were performed with a stimulated echo using bipolar gradient pulses for diffusion, one spoil gradient, and the 3-9-19 pulse sequence with gradients for water suppression according to the Bruker pulse program stebpgp1s19. The gradient duration was set to δ = 10 ms (protein-only experiments) and 20ms (protein⋅carbohydrate complexes experiments), and the diffusion time was set to Δ = 40 ms. Gradient strength was linearly varied in 16 steps from 0.6 to 6.7 G/cm. For each of the 16 gradient amplitudes, eight transients of 192 complex data points were acquired to a 10.0-ppm spectral width. The pulse repetition delay between each scan was 3 s.

In assay [2] the target is T2, Trans-sialidase [3-643] (Trypanosoma cruzi, UniProt Q9BHJ5).
T2 construct: 3-643
T2 sequence (Q9BHJ5 whole entry): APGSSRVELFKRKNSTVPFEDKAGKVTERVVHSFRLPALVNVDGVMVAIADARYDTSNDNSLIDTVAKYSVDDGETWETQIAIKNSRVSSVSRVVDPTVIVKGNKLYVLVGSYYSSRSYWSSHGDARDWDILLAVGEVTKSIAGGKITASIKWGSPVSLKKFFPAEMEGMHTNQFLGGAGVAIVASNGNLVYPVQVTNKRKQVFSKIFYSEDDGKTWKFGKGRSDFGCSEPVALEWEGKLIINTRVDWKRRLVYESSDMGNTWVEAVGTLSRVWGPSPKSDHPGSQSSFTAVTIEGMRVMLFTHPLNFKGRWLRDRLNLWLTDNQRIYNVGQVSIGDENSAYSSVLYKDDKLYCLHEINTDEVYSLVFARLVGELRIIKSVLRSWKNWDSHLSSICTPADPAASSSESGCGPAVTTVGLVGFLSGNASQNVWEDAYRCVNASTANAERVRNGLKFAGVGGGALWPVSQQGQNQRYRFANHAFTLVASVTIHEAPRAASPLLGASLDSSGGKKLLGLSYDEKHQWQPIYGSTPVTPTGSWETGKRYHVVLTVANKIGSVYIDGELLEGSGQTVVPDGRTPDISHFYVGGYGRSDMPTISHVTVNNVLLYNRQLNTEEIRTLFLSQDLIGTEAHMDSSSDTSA
The procedure: as §1

Assay [3] addresses T3, Trans-sialidase [3-643,D247A] (Trypanosoma cruzi, UniProt Q9BHJ5, D247A).
T3 construct: 3-643
The procedure: as §1

T1 sequence (Q9BHJ5 3-643 Y344H): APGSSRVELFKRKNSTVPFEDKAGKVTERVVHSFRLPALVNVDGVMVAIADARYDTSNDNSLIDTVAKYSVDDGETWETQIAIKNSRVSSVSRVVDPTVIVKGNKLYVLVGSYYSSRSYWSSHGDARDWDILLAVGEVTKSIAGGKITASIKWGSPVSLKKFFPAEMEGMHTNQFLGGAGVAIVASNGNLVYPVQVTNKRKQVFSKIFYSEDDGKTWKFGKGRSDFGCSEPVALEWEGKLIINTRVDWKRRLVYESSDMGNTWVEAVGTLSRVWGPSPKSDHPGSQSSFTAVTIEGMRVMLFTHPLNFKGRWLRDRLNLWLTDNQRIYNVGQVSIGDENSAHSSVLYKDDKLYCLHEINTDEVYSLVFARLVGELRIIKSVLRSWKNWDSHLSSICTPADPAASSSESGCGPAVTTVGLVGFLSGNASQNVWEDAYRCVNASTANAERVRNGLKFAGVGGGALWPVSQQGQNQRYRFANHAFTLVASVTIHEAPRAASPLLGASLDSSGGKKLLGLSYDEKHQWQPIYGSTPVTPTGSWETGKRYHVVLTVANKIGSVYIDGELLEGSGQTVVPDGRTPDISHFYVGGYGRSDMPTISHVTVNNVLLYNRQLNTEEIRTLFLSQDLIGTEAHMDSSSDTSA
T3 sequence (Q9BHJ5 3-643 D249A): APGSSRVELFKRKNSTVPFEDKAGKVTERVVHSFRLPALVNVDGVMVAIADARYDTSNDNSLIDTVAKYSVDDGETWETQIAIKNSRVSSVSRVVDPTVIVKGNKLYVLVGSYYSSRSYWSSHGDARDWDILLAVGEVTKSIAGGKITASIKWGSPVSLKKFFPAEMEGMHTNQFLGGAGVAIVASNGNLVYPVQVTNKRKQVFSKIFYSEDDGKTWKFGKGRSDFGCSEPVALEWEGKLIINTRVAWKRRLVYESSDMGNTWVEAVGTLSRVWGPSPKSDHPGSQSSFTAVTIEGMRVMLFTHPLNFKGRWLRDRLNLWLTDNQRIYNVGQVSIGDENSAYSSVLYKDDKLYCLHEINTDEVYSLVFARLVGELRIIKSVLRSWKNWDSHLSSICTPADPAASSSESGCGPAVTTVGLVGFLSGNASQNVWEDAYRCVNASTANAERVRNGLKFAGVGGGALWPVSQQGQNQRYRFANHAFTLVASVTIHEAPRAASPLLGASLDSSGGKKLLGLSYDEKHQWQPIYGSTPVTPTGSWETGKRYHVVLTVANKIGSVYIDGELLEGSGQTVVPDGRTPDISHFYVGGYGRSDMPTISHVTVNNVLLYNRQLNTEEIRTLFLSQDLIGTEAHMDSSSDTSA

With `CO[C@@H]1O[C@H](CO)[C@@H](O[C@@H]2O[C@H](CO)[C@H](O)[C@H](O)[C@H]2O)[C@H](O)[C@H]1O` [CHEBI:610092], the Kd (usually the free concentration of one partner at which half of the binding sites on the other are occupied at equilibrium, for simple one-to-one binding) in assay [1] came out at 52 µM; in assay [2], 15 µM.
`CC(=O)NC1C(O)CC(OC2C(O)C(CO)OC(OC3C(CO)OC(O)C(O)C3O)C2O)(C(=O)O)OC1[C@H](O)[C@H](O)CO` (stereo partly drawn) [α2,3'-sialyllactose]: the Kd in assay [3] was found to be 107 µM; in assay [1], 234 µM.
For the compound `COC1OC(CO)C(O)C(SC2(C(=O)O)CC(O)C(NC(C)=O)C([C@H](O)[C@H](O)CO)O2)C1O` (stereo not given in full) [NeuSGal], the Kd in assay [2] is 456 µM.
